# Assay results published in paper PMC11554305, “Functional identification of soluble uric acid as an endogenous inhibitor of CD38” (eLife, 2024).
# Tested on: bone marrow-derived macrophages (BMDMs)
# Experiment: Extracellular NMN degradation in primed BMDMs
# Assay type: cell-based, mouse
# Conditions: WT BMDMs, not in CD38 KO BMDMs; NMN 100 μM, 6 hr
# Method: Bone marrow cells were isolated from 10- to 12-week-old WT or CD38 KO mice (both male and female) by washing the marrow cavity with sterile PBS. The collected bone marrow cells were filtered by 70 μm strainers and then centrifuged at 1000 rpm, 4°C for 5 min. The cell pellet was resuspended in 2 mL red blood cell (RBC) lysis buffer for 30 s, then 8 mL complete RPMI-1640 medium (10% FBS, 1% penicillin/streptomycin, and 50 μM 2-mercaptoethanol) was added to terminate the lysis. After 5 min centrifugation at 1000 rpm, 4°C, the cells were resuspended in fresh complete RPMI-1640 medium and maintained for 4 hr in an incubator. Adherent cells were discarded, whereas non-adherent cells were cultured in complete RPMI-1640 medium containing 20 ng/mL M-CSF. After 3-day differentiation, the medium was replaced with fresh complete RPMI-1640 medium containing 20 ng/mL M-CSF. On the 7th day, BMDMs were collected for subsequent experiments. BMDMs were primed with 100 ng/mL ultrapure LPS for 4 hr for canonical inflammasome assay. For metabolic assay of NMN, BMDMs were primed with 100 ng/mL ultrapure LPS for 8 hr to induce higher protein expression of CD38.
# WT and CD38 KO BMDMs were primed with 100 ng/mL ultrapure LPS for 8 hr, then the cells were washed twice with sterile PBS. Primed BMDMs were maintained in RPMI-1640 medium supplemented with 100 μM NMN in the presence or absence of sUA. […]
smiles,measurement,value
"O=c1[nH]c(=O)c2[nH]c(=O)[nH]c2[nH]1 [sUA, uric acid]",Extracellular NMN availability,increased extracellular NMN availability
